In patent US20240174603A1 (Rappta Therapeutics Oy, priority 2021, published 2024):

These compounds were tested on LNCaP cells (assay: LNCaP cell viability assay (MTS)). Details: Homo sapiens, LNCaP, 48 h, LNCaP cell line.
Format: cell-based
Method: LNCaP cell line was used for the cell viability assay. LNCaP cells were plated in 96-well plates at a density of 5000 cells per well. After 24 hours of plating, the cells were treated with increasing doses of compound (e.g., compounds 1-269) ranging from 1 μM to 80 μM. Relative cell numbers were analyzed after 48 hours using 3-(4,5-dimethylthiazol-2-yl)-5-(3-carboxymethoxyphenyl)-2-(4-sulfophenyl)-2H-tetrazolium (MTS) assay (Promega) according to the manufacturer's instructions.
The cell viability data was analyzed with GraphPad Prism software. The values were log transformed and analyzed with non-linear regression (curve-fit) using log(inhibitor) vs. response-variable slope (four parameters) and constraining the bottom to equal zero. Unless otherwise indicated, the GI50 values provided in Table 113 correspond to the LNCaP cell viability assays.

In order of falling GI50:
1. O=S(=O)(NC(CC1CC1)c1ccc(F)cc1Br)c1ccc(OC(F)(F)F)cc1 (single isomer, unassigned) [Compound 142a, N-(1-(2-bromo-4-fluorophenyl)-2-cyclopropylethyl)-4-(trifluoromethoxy)benzenesulfonamide]  80 µM
2. COc1ccc(S(=O)(=O)N2CCC(CNS(=O)(=O)c3ccc(OC(F)(F)F)cc3)CC2)cc1OC [Compound 1, N-((1-((3,4-dimethoxyphenyl)sulfonyl)piperidin-4-yl)methyl)-4-(trifluoromethoxy)benzenesulfonamide]  63.8 µM
3. O=S(=O)(NCc1ccccc1S(=O)(=O)N1CCCCC1)c1ccc(OC(F)(F)F)cc1 [Compound 2, N-(2-(piperidin-1-ylsulfonyl)benzyl)-4-(trifluoromethoxy)benzenesulfonamide]  58.3 µM
4. CN(C)CC(NS(=N)(=O)c1ccc(OC(F)(F)F)cc1)c1ccc(Cl)c(Cl)c1 (single isomer, unassigned) [Compound 165a, N-(1-(3,4-dichlorophenyl)-2-(dimethylamino)ethyl)-4-(trifluoromethoxy)benzenesulfonimidamide]  46.3 µM
5. CN(C)CC(NS(=O)(=O)c1ccc(OC(F)(F)F)cc1)c1ccc(Cl)cc1 (single isomer, unassigned) [Compound 179, N-(1-(4-chlorophenyl)-2-(dimethylamino)ethyl)-4-(trifluoromethoxy)benzenesulfonamide]  43.1 µM
6. COc1ccc([C@@H]2[C@@H](CNS(=O)(=O)c3ccc(OC(F)(F)F)cc3)CCN2C)cc1 (racemic) [Compound 106, Rac-N-(((2S,3R)-2-(4-methoxyphenyl)-1-methylpyrrolidin-3-yl)methyl)-4-(trifluoromethoxy)benzenesulfonamide]  24 µM
7. CN(C)CC(NS(=O)(=O)c1ccc(OC(F)(F)F)c(Cl)c1)c1ccc(Cl)c(Cl)c1 (single isomer, unassigned) [Compound 201, 3-chloro-N-(1-(3,4-dichlorophenyl)-2-(dimethylamino)ethyl)-4-(trifluoromethoxy)benzenesulfonamide]  22.8 µM
8. CN(C)CC(NS(=O)(=O)c1cccc(-c2ccccc2)c1)c1ccc(Cl)c(Cl)c1 (single isomer, unassigned) [Compound 197, N-(1-(3,4-dichlorophenyl)-2-(dimethylamino)ethyl)-[1,1′-biphenyl]-3-sulfonamide]  19.3 µM
9. O=S(=O)(NC(c1cc(Cl)cc(Cl)c1)C1CCCCC1)c1ccc(OC(F)(F)F)cc1 (single isomer, unassigned) [Compound 140, N-(cyclohexyl(3,5-dichlorophenyl)methyl)-4-(trifluoromethoxy)benzenesulfonamide]  19 µM
10. CCCc1ccc(S(=O)(=O)NC(CN(C)C)c2ccc(Cl)c(Cl)c2)cc1 (single isomer, unassigned) [Compound 199, N-(1-(3,4-dichlorophenyl)-2-(dimethylamino)ethyl)-4-propylbenzenesulfonamide]  14.4 µM
11. CN(C)CC(NS(=O)(=O)c1ccc(Oc2ccccc2)cc1)c1ccc(Cl)c(Cl)c1 (single isomer, unassigned) [Compound 170, N-(1-(3,4-dichlorophenyl)-2-(dimethylamino)ethyl)-4-phenoxybenzenesulfonamide]  13.3 µM
12. CN(C)CC(NS(=O)(=O)c1ccc(OC(F)(F)F)cc1)c1ccc(Cl)c(Cl)c1 (single isomer, unassigned) [Compound 148, N-(1-(3,4-dichlorophenyl)-2-(dimethylamino)ethyl)-4-(trifluoromethoxy)benzenesulfonamide]  12.7 µM
13. CN(C)CC(NS(=O)(=O)c1ccc(-c2ccccc2)cc1)c1ccc(Cl)c(Cl)c1 (single isomer, unassigned) [Compound 195, N-(1-(3,4-dichlorophenyl)-2-(dimethylamino)ethyl)-[1,1′-biphenyl]-4-sulfonamide]  11.9 µM
14. O=S(=O)(NC(CN1CC2CC1CN2)c1ccc(Cl)c(Cl)c1)c1ccc(OC(F)(F)F)cc1 (single isomer, unassigned) [Compound 261a, N-(2-(2,5-diazabicyclo[2.2.1]heptan-2-yl)-1-(3,4-dichlorophenyl)ethyl)-4-(trifluoromethoxy)benzenesulfonamide]  10.5 µM
15. CN(C)C[C@@H](NS(=O)(=O)c1ccc(OC(F)(F)F)c([N+](=O)[O-])c1)c1ccc(Cl)c(Cl)c1 (single isomer, unassigned) [Compound 203, N-(1-(3,4-dichlorophenyl)-2-(dimethylamino)ethyl)-3-nitro-4-(trifluoromethoxy)benzenesulfonamide]  1.4 µM

Same assay, conditions: LNCaP cell line, 48 hours

In order of rising GI50:
1. CN(C)C[C@@H](NS(=O)(=O)c1ccc(OC(F)(F)F)c([N+](=O)[O-])c1)c1ccc(Cl)c(Cl)c1 (single isomer, unassigned) [Compound 204, N-(1-(3,4-dichlorophenyl)-2-(dimethylamino)ethyl)-3-nitro-4-(trifluoromethoxy)benzenesulfonamide]  1.14 µM
2. CN(C)CC(NS(=O)(=O)c1ccc(Oc2ccc(C(F)(F)F)cc2)cc1)c1ccc(Cl)c(Cl)c1 (single isomer, unassigned) [Compound 172, N-(1-(3,4-dichlorophenyl)-2-(dimethylamino)ethyl)-4-(4-(trifluoromethyl)phenoxy)benzenesulfonamide]  6.04 µM
3. O=S(=O)(NC(CN1CC2CC1CN2)c1ccc(Cl)c(Cl)c1)c1ccc(OC(F)(F)F)cc1 (single isomer, unassigned) [Compound 261b, N-(2-(2,5-diazabicyclo[2.2.1]heptan-2-yl)-1-(3,4-dichlorophenyl)ethyl)-4-(trifluoromethoxy)benzenesulfonamide]  9.79 µM
4. CN(C)CC(NS(=O)(=O)c1cccc(-c2ccccc2)c1)c1ccc(Cl)c(Cl)c1 (single isomer, unassigned) [Compound 198, N-(1-(3,4-dichlorophenyl)-2-(dimethylamino)ethyl)-[1,1′-biphenyl]-3-sulfonamide]  12.5 µM
5. CN(C)CC(NS(=O)(=O)c1ccc(Oc2ccc(C(F)(F)F)cc2)cc1)c1ccc(Cl)c(Cl)c1 (single isomer, unassigned) [Compound 173, N-(1-(3,4-dichlorophenyl)-2-(dimethylamino)ethyl)-4-(4-(trifluoromethyl)phenoxy)benzenesulfonamide]  13 µM
6. CN(C)CC(NS(=O)(=O)c1ccc(Oc2ccccc2)cc1)c1ccc(Cl)c(Cl)c1 (single isomer, unassigned) [Compound 171, N-(1-(3,4-dichlorophenyl)-2-(dimethylamino)ethyl)-4-phenoxybenzenesulfonamide]  15.8 µM
7. CN(C)CC(NS(=O)(=O)c1ccc(-c2ccccc2)cc1)c1ccc(Cl)c(Cl)c1 (single isomer, unassigned) [Compound 196, N-(1-(3,4-dichlorophenyl)-2-(dimethylamino)ethyl)-[1,1′-biphenyl]-4-sulfonamide]  15.9 µM
8. CCCc1ccc(S(=O)(=O)NC(CN(C)C)c2ccc(Cl)c(Cl)c2)cc1 (single isomer, unassigned) [Compound 200, N-(1-(3,4-dichlorophenyl)-2-(dimethylamino)ethyl)-4-propylbenzenesulfonamide]  17.8 µM
9. O=S(=O)(NC(c1cc(Cl)cc(Cl)c1)C1CCCCC1)c1ccc(OC(F)(F)F)cc1 (single isomer, unassigned) [Compound 141, N-(cyclohexyl(3,5-dichlorophenyl)methyl)-4-(trifluoromethoxy)benzenesulfonamide]  21.3 µM
10. CN(C)CC(NS(=O)(=O)c1ccc(OC(F)(F)F)c(Cl)c1)c1ccc(Cl)c(Cl)c1 (single isomer, unassigned) [Compound 202, 3-chloro-N-(1-(3,4-dichlorophenyl)-2-(dimethylamino)ethyl)-4-(trifluoromethoxy)benzenesulfonamide]  21.6 µM
11. CN(C)CC(NS(=O)(=O)c1ccc(OC(F)(F)F)cc1)c1ccc(Cl)c(Cl)c1 (single isomer, unassigned) [Compound 149, N-(1-(3,4-dichlorophenyl)-2-(dimethylamino)ethyl)-4-(trifluoromethoxy)benzenesulfonamide]  23.9 µM
12. CN(C)CC(NS(=O)(=O)c1ccc(OC(F)(F)F)cc1)c1cccc(C(F)(F)F)c1 (single isomer, unassigned) [Compound 177, N-(2-(dimethylamino)-1-(3-(trifluoromethyl)phenyl)ethyl)-4-(trifluoromethoxy)benzenesulfonamide]  24.9 µM
13. O=S(=O)(NC(CC1CC1)c1ccc(F)cc1Br)c1ccc(OC(F)(F)F)cc1 (single isomer, unassigned) [Compound 142b, N-(1-(2-bromo-4-fluorophenyl)-2-cyclopropylethyl)-4-(trifluoromethoxy)benzenesulfonamide]  49.6 µM
14. CN(C)CC(NS(=O)(=O)c1ccc(OC(F)(F)F)cc1)c1cccc(C(F)(F)F)c1 (single isomer, unassigned) [Compound 178, N-(2-(dimethylamino)-1-(3-(trifluoromethyl)phenyl)ethyl)-4-(trifluoromethoxy)benzenesulfonamide]  51.2 µM
15. CN(C)CC(NS(=O)(=O)c1ccc(OC(F)(F)F)cc1)c1ccc(Cl)cc1 (single isomer, unassigned) [Compound 180, N-(1-(4-chlorophenyl)-2-(dimethylamino)ethyl)-4-(trifluoromethoxy)benzenesulfonamide]  51.3 µM
16. CN(C)CC(NS(=N)(=O)c1ccc(OC(F)(F)F)cc1)c1ccc(Cl)c(Cl)c1 (single isomer, unassigned) [Compound 165b, N-(1-(3,4-dichlorophenyl)-2-(dimethylamino)ethyl)-4-(trifluoromethoxy)benzenesulfonimidamide]  53.8 µM
